According to patent publication US7495027B2, “3-aryl-4-hydroxyfuranone compounds and the human and animal health use thereof” (Wyeth, priority 2003, dated 2009):

Columns and labels:
[1] = system: Trichostrongylus columbriformis; assay: In vivo efficacy against T. colubriformis in infected gerbils; conditions: gerbils infected with T. colubriformis, single oral dose of 50 mg/kg by gavage, worm counts four days post-treatment, % mortality as compared to negative control
Outline: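 Gerbils infected with ~800 L3/mL larvae were treated one week later by gavage with a single 50 mg/kg oral dose in PEG 400:DMSO (1:2 v/v), 3 animals per group. Necropsy four days post-treatment, with worms counted under stereoscopes.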

[2] = Toxicity in treated gerbils (deaths or significant weight loss); type: in vivo; parameters: key: +: Toxicity is indicated for those groups having one or more animals expired; conditions: single oral dose of 50 mg/kg
Method: In this evaluation, gerbils are infected with Trichostrongylus columbriformis infective larvae at a concentration of approximately 800 L3/mL. Larvae for gerbil infections are cultured from feces from sheep previously infected with T. colubriformis. One week post infection, test compounds are administered by gavage as a single oral dose of 50 mg/kg of body weight. For each group of 3 gerbils, 10 mg of test compound are dissolved in 2 mL of PEG 400:DMSO (1:2 v/v) and each animal is administered the test solution at a rate of 0.1 mL/10 g of body weight. […] All animals are observed daily for morbidity and mortality. Four days post-treatment, all animals are weighed and necropsied. Worm counts are conducted with the use of stereoscopes and counters.

C. elegans = assay: Efficacy against nematodes (C. elegans motility rating); parameters: key: 0: no effect; 7: reduced movement in 24 h; 8: dead in 24 h; 9: dead in 4 h; conditions: observations at 4 h and 24 h postimmersion
Outline: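 Mixed-stage C. elegans (~50 per well, L1 to adult) in M9 buffer exposed to test compound at 100 ppm, 150 ppm or 200 μM final. Motility of larvae and adults scored under dissecting microscope at 4 h and 24 h.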

SMILES	Mortality [1] [%]	Toxicity ([2]; groups of 3)	Rating (C. elegans; dose 100 ppm)	Rating (C. elegans; dose 150 ppm)	Mortality ([1]; 50 mg/kg) [%]	Toxicity ([2]; groups of 3, 50 mg/kg)
O=C1OC(=Cc2ccc(Cl)cc2)C(O)=C1c1ccc(OC(F)(F)F)cc1 (mixture of isomers) [R=H; R1=4-OCF3—C6H4**; R2=4-Cl—C6H4]	100.0	+	9			
O=C1OC(=Cc2ccc(F)cc2)C(O)=C1c1ccc(OC(F)(F)F)cc1 (mixture of isomers) [R=H; R1=4-OCF3—C6H4**; R2=4-F—C6H4]	0.00	+	9			
O=C1OC(=Cc2ccc(OC(F)(F)F)cc2)C(O)=C1c1ccc(OC(F)(F)F)cc1 (mixture of isomers) [R=H; R1=4-OCF3—C6H4**; R2=4-OCF3—C6H4]	100.0	+	9			
O=C1O/C(=C\c2ccc(-c3ccccc3)cc2)C(O)=C1c1cc(C(F)(F)F)cc(C(F)(F)F)c1 [R=H; R1=3,5-diCF3—C6H3; R2=4-biphenyl]	60.80	+		9		
O=C1O/C(=C\c2ccc(-c3ccccc3)cc2)C(O)=C1c1cc(Cl)cc(Cl)c1 [R=H; R1=3,5-diCl—C6H3; R2=4-biphenyl]	52.60	+		9		
N#Cc1ccc(-c2ccc(/C=C3\OC(=O)C(c4ccc(Cl)cc4)=C3O)cc2)cc1 [R=H; R1=4-Cl—C6H4; R2=4-(4′-CN-biphenyl)]				9	48.90	+
O=C1O/C(=C\c2ccc(-c3ccc(Cl)cc3)cc2)C(O)=C1c1ccc(Cl)cc1 [R=H; R1=4-Cl—C6H4; R2=4-(4′-Cl-biphenyl)]	61.33	+		9		
O=C1O/C(=C\c2ccc(Cl)cc2)C(O)=C1c1ccc(Cl)cc1 [R=H; R1=4-Cl—C6H4; R2=4-Cl—C6H4]	79.78	+		9		
